Source: patent US10934255B2, “Nrf and HIF activators/HDAC inhibitors and therapeutic methods using the same” (THE BOARD OF TRUSTEES OF THE UNIVERSITY OF ILLINOIS, priority 2017, dated 2021)
Read-outs that look alike come from different tables or passages of the source.

Columns and labels:
[1] = target: T1, Human HDAC6 (Homo sapiens, UniProt Q9UBN7); assay: HDAC6 inhibition assay (fluorogenic p53 peptide substrate); type: biochemical
T1 construct: Full length with N-terminal GST tag, MW=159 kDa; GST (N); host or cells: Sf9 insect cells (baculovirus)
T1 sequence (Q9UBN7 1-1215): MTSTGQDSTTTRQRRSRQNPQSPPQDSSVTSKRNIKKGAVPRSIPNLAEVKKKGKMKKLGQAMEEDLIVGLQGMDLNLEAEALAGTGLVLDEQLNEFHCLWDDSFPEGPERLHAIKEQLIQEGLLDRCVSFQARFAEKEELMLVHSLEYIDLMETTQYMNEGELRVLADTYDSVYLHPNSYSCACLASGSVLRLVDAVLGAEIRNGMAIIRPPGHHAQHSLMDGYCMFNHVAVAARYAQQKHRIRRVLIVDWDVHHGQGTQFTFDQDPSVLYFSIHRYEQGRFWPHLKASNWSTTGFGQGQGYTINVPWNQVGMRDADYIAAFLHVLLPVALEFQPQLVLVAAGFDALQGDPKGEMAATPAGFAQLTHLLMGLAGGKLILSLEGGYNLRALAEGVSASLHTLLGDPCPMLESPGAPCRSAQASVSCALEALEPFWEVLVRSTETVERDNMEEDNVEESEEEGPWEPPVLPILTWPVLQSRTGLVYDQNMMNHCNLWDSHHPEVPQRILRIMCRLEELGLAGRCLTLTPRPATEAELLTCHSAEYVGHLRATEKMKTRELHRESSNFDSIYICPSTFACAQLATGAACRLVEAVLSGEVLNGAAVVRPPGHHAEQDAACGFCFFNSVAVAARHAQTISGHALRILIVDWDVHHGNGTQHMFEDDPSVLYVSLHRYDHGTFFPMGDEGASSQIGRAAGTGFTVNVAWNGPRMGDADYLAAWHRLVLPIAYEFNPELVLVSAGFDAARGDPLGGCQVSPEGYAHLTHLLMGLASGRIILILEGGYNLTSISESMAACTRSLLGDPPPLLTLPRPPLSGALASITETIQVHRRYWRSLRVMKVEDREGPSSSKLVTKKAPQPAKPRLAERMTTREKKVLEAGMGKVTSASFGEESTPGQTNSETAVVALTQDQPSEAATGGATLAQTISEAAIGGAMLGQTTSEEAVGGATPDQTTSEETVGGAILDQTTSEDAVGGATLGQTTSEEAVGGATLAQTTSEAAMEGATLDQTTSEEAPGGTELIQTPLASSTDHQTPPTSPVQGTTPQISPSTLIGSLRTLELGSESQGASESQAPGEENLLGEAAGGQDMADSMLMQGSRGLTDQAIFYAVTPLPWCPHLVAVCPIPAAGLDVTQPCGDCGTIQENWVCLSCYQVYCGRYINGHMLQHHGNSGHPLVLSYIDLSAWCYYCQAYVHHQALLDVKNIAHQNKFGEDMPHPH
Protocol: (§1) The HDAC1, 2, 4, 5, 6, 7, 8, 9, 10, and 11 assays used isolated recombinant human protein; HDAC3/NcoR2 complex was used for the HDAC3 assay. Substrate for HDAC1, 2, 3, 6, 10, and 11 assays is a fluorogenic peptide from p53 residues 379-382 (RHKKAc); substrate for HDAC8 is fluorogenic diacyl peptide based on residues 379-382 of p53 (RHKAcKAc). Acetyl-Lys(trifluoroacetyl)-AMC substrate was used for HDAC4, 5, 7, and 9 assays. Compounds were dissolved in DMSO and tested in 10-dose IC50 mode with 3-fold serial dilution starting at 30 μM. Control Compound Trichostatin A (TSA) was tested in a 10-dose IC50 with 3-fold serial dilution starting at 5 μM. IC50 values were extracted by curve-fitting the dose/response slopes. Assays were performed in duplicate and IC50 values are an average of data from both experiments.
Human HDAC6 (GenBank Accession No. BC069243): Full length with N-terminal GST tag, MW=159 kDa, expressed by baculovirus expression system in Sf9 cells. Enzyme is in 50 mM Tris-HCl, pH 8.0, 138 mM NaCl, 20 mM glutathione, and 10% glycerol, and stable for >6 months at −80° C. Purity is >90% by SDS-PAGE. Specific Activity is 50 U/μg, where one U=1 pmol/min under assay condition of 25 mM Tris/Cl, pH8.0, 137 mM NaCl, 2.7 mM KCl, 1 mM MgCl2, and 0.1 mg/ml BSA, 30 μM HDAC substrate, and 5 ng/μl HDAC6, incubation for 60 min at 30° C.
Substrate for HDAC1 and HDAC6: Acetylated peptide substrate for HDAC, based on residues 379-382 of p53 (Arg-His-Lys-Lys(Ac)), a site of regulatory acetylation by the p300 and CBP acetyltransferases (lysines 381, 382)1-6, is the best for HDAC from among a panel of substrates patterned on p53, histone H3 and histone H4 acetylation sites7.
Reaction Buffer: 50 mM Tris-HCl, pH 8.0, 137 mM NaCl, 2.7 mM KCl, 1 mM MgCl2, 1 mg/ml BSA.
HDAC6: 12.6 nM HDAC6 and 50 μM HDAC substrate are in the reaction buffer and 1% DMSO final. Incubate for 2 hours at 30° C.
All IC50 values are automatically calculated using the GraphPad Prism version 5 and Equation of Sigmoidal dose-response (variable slope): Y=Bottom+(Top−Bottom)/(1+10^((Log EC50−X)*HillSlope)), where X is the logarithm of concentration, Y is the response, Y starts at Bottom and goes to Top with a sigmoid shape. In most cases, “Bottom” is set 0, and “Top” is set “less than 120%”. This is identical to the “four parameter logistic equation”. IC50 curves also are drawn using the GraphPad Prism, and IC50 values and Hill slopes are provided.
HDAC Activity Assays: HDAC assay is performed using fluorescently-labeled acetylated substrate, which comprises an acetylated lysine side chain. After incubation with HDAC, deacetylation of the substrate sensitizes the substrate such that, in a second step, treatment with the detection enzyme produces a fluorophore. HDACs 1 and 6 were expressed as full length fusion proteins. Purified proteins were incubated with 50 μM fluorescently-labeled acetylated peptide substrate and test compound for 2 hours at RT in HDAC assay buffer containing 50 mM Tris-HCl (pH 8.0), 137 mM NaCl, 2.7 mM KCl, 1 mM MgCl2, 1% DMSO, and 1% BSA.
Reactions were terminated by the addition of the Developer after 2 hours, and the development of fluorescence signal, which was relative to the amount of deacetylated peptide, was monitored by time-course measurement of EnVision (PerkinElmer). The HDAC activity was estimated from the slope of time-course measurement of the fluorescence intensity. The slope of no-enzyme control (substrate alone) was served as background, and % Enzyme activity was calculated using background-subtracted slope of no inhibitor control (DMSO) as 100% activity.

[2] = target: HDAC4 (Homo sapiens, UniProt P56524); assay: HDAC4 isoform selectivity assay; type: biochemical; conditions: Table 2 isoform selectivity; read-out: HDAC Inhibition (IC50 uM) isoform 4
HDAC4, sequence (P56524 whole entry, canonical isoform): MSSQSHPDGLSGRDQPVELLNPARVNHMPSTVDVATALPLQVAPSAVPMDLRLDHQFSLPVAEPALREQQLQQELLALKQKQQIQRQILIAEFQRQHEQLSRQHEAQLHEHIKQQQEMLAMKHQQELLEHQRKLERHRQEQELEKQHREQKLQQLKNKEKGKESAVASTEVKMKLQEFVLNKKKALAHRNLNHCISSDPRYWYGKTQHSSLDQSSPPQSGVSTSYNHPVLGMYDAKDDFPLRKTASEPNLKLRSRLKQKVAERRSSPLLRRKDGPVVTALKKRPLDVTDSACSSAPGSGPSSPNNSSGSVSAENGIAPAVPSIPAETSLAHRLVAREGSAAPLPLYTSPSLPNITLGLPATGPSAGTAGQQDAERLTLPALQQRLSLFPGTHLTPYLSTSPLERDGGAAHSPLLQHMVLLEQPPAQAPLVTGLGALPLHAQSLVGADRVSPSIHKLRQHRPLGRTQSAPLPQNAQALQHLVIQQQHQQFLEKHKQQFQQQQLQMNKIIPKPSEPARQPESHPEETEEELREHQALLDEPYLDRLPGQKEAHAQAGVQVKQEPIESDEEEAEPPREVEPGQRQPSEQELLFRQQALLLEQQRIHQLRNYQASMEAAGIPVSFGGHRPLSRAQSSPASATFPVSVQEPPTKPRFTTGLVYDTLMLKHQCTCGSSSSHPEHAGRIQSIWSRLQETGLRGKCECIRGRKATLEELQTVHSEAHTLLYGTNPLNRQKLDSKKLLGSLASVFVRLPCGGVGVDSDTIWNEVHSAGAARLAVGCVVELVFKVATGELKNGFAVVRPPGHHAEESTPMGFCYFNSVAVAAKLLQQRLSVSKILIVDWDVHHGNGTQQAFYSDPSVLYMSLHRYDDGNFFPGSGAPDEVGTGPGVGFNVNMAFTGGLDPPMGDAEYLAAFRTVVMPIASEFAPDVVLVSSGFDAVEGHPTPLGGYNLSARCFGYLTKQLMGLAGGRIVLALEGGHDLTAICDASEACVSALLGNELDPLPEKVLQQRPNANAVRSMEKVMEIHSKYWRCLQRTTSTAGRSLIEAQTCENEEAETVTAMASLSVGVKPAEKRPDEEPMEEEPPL
Protocol: as §1

[3] = Table 1, performed by Reaction Biology Corporation, read-out: HDAC isoform IC50 (nM) 6
[4] = Table 2 isoform selectivity, read-out: HDAC Inhibition (IC50 uM) isoform 6

| IC50 [1, 3] | SMILES | IC50 [1, 4] | IC50 [2] |
| --- | --- | --- | --- |
| 11 nM | Cn1c(NCc2ccc(C(=O)NO)cc2)nc2ccccc21 [II-ING-13, N-Hydroxy-4-(((1-methyl-1H-benzo[d]imidazol-2-yl)amino)methyl)benzamide] | 9 nM | 2.42 µM |
| 21.5 nM | O=C(NO)c1ccc(CN2CCc3cc(Cl)ccc32)cc1 [II-ING-39, 4-((5-Chloroindolin-1-yl)methyl)-N-hydroxybenzamide] | – | – |
| 13.1 nM | O=C(NO)c1ccc(CN2CCc3cc(F)ccc32)cc1 [II-ING-42, 4-((5-Fluoroindolin-1-yl)methyl)-N-hydroxybenzamide] | – | – |
| 26.8 nM | O=C(NO)c1ccc(CN2CCc3ccccc32)cc1 [II-ING-44, N-Hydroxy-4-(indolin-1-ylmethyl)benzamide] | – | – |
| 11.5 nM | COc1ccc2c(c1)CCN2Cc1ccc(C(=O)NO)cc1 [II-ING-49, N-Hydroxy-4-((5-methoxyindolin-1-yl)methyl)benzamide] | – | – |

| SMILES | IC50 [1, 3] | IC50 [1, 4] | IC50 [2] |
| --- | --- | --- | --- |
| O=C(NO)c1ccc(CN2CCc3ccc(Cl)cc32)cc1 [II-ING-6, 4-((6-Chloroindolin-1-yl)methyl)-N-hydroxybenzamide] | 11.5 nM | 9 nM | 3.48 µM |
| O=C(NO)c1ccc(CN2CCc3ccc(F)cc32)cc1 [II-ING-41, 4-((6-Fluoroindolin-1-yl)methyl)-N-hydroxybenzamide] | 16.7 nM | 4 nM | 2.41 µM |
| O=C(NO)c1ccc(CN2C(=O)C(F)(F)c3ccccc32)cc1 [II-ING-66, 4-((3,3-Difluoro-2-oxoindolin-1-yl)methyl)-N-hydroxybenzamide] | 4.1 nM | – | – |
